According to the supplement of paper PMC10307832:

How the values were obtained:
Experiment in all cases: relative viability (nuclei count vs DMSO), 5 days (fraction); higher = more cells survive
Metformin + Luminespib = compound: CN(C)C(=N)NC(=N)N [Metformin] + CCNC(=O)c1noc(-c2cc(C(C)C)c(O)cc2O)c1-c1ccc(CN2CCOCC2)cc1 [Luminespib] (partner 0.01 µM)
In short: (§1)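 Lung cancer cell lines in 1536-well plates got either a single drug or a fixed anchor-drug dose together with five library-drug doses (not always all listed) in √10 steps, by pin tool, on the day after seeding. Nuclei were counted after 5 days, and relative viability is the treated-to-vehicle ratio of nuclei counts. Values are medians of duplicate plates.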

Apatinib + Trametinib = compound: N#CC1(c2ccc(NC(=O)c3cccnc3NCc3ccncc3)cc2)CCCC1 [Apatinib] + CC(=O)Nc1cccc(-n2c(=O)n(C3CC3)c(=O)c3c(Nc4ccc(I)cc4F)n(C)c(=O)c(C)c32)c1 [Trametinib] (partner 0.02 µM)
In short: as §1

Apatinib + Linsitinib = compound: N#CC1(c2ccc(NC(=O)c3cccnc3NCc3ccncc3)cc2)CCCC1 [Apatinib] + C[C@]1(O)C[C@@H](c2nc(-c3ccc4ccc(-c5ccccc5)nc4c3)c3c(N)nccn32)C1 [Linsitinib] (partner 1 µM)
In short: as §1

Apatinib + Decitabine = compound: N#CC1(c2ccc(NC(=O)c3cccnc3NCc3ccncc3)cc2)CCCC1 [Apatinib] + Nc1ncn([C@H]2C[C@H](O)[C@@H](CO)O2)c(=O)n1 [Decitabine] (partner 2 µM)
In short: as §1

Cell Line | relative viability (Metformin + Luminespib; first compound 10 µM) | relative viability (Metformin + Luminespib; first compound 31.62 µM) | relative viability (Metformin + Luminespib; first compound 100 µM) | relative viability (Metformin + Luminespib; first compound 316.23 µM) | relative viability (Metformin + Luminespib; first compound 1000 µM) | relative viability (Apatinib + Trametinib; first compound 0.08 µM) | relative viability (Apatinib + Trametinib; first compound 0.253 µM) | relative viability (Apatinib + Trametinib; first compound 0.8 µM) | relative viability (Apatinib + Trametinib; first compound 2.53 µM) | relative viability (Apatinib + Trametinib; first compound 8 µM) | relative viability (Apatinib + Linsitinib; first compound 0.08 µM) | relative viability (Apatinib + Linsitinib; first compound 0.253 µM) | relative viability (Apatinib + Linsitinib; first compound 0.8 µM) | relative viability (Apatinib + Linsitinib; first compound 2.53 µM) | relative viability (Apatinib + Linsitinib; first compound 8 µM) | relative viability (Apatinib + Decitabine; first compound 0.08 µM) | relative viability (Apatinib + Decitabine; first compound 0.253 µM) | relative viability (Apatinib + Decitabine; first compound 0.8 µM) | relative viability (Apatinib + Decitabine; first compound 2.53 µM) | relative viability (Apatinib + Decitabine; first compound 8 µM)
A-427 | 1.21 | 0.972 | 1.04 | 0.952 | 0.91 | 0.832 | 0.741 | 0.726 | 0.737 | 0.521 | 1.1 | 1.06 | 1.07 | 1.11 | 1.09 | 0.604 | 0.583 | 0.533 | 0.575 | 0.618
NCI-H596 | 0.98 | 1.18 | 1.08 | 1.02 | 1.06 | 0.89 | 0.831 | 0.803 | 0.696 | 0.722 | 1.23 | 1.05 | 1.02 | 0.994 | 0.795 | 1 | 1.18 | 0.916 | 1.04 | 1.08
EMC-BAC-2 | 1.23 | 1.24 | 1.21 | 1.19 | 1.33 |  | 0.869 | 0.887 | 0.818 | 0.799 | 0.815 | 0.816 | 0.766 | 0.72 | 0.78 |  | 0.967 | 0.925 | 0.954 | 1.01
NCI-H2126 | 0.647 | 0.956 | 0.803 | 0.571 | 0.496 | 0.605 | 0.562 | 0.569 | 0.538 | 0.415 | 0.733 | 0.69 | 0.675 | 0.631 | 0.652 | 0.589 | 0.637 | 0.666 | 0.566 | 0.547
NCI-H1437 | 1.15 | 1.16 | 1.19 | 1.08 | 1.12 | 0.526 | 0.532 | 0.433 | 0.314 | 0.348 | 1.03 | 1.06 | 0.879 | 0.653 | 0.475 | 0.583 | 0.584 | 0.524 | 0.505 | 0.46
LXF-289 | 0.693 | 0.683 | 0.724 | 0.625 | 0.621 | 0.667 | 0.705 | 0.638 | 0.608 | 0.56 | 0.974 | 0.964 | 0.96 | 0.941 | 0.896 | 0.4 | 0.386 | 0.391 | 0.565 | 0.594
LK-2 | 0.203 | 0.17 | 0.196 | 0.2 | 0.191 | 0.605 | 0.671 | 0.75 | 0.793 | 0.395 | 0.602 | 0.356 | 0.631 | 0.503 | 0.399 | 0.299 | 0.298 | 0.273 | 0.21 | 0.273
LC-2-ad |  | 0.858 | 0.934 | 0.683 | 0.647 | 0.94 | 0.926 | 0.907 | 0.678 | 0.659 | 0.863 | 0.831 | 0.864 | 0.652 | 0.507 | 0.862 | 0.776 | 0.792 | 0.668 | 0.698
